# Experimental data taken from US4652581A, “Tetrahydroindole derivative as medicament for cerebral apoplexy” (Grelan Pharmaceutical Co., Ltd., priority 1983, dated 1987).
# Where two headings read alike, the source gives them in different places.
# Assays:
# [1] = test system: cerebral apoplexy (stroke-prone spontaneously hypertensive rats); assay: Effect against cerebral apoplexy in NaCl-loaded stroke-prone spontaneously hypertensive rats (Test Example 2); type: in vivo
# Excerpt: Stroke-prone spontaneously hypertensive rats [K. Okamoto et al., Circulation Res. suppl. 34 & 35, 143 (1974)]of 10 weeks aged were fed, in conventional manner, with a 1 weight % aqueous solution of sodium chloride as drinking water [H. Ikeda et al., Europ. J. Pharmacol. 53, 173 (1979)]being employed.
# Animals were subjected to periodical observation, three times a day, until the symptom of cerebral apoplexy was manifested in all the animals of the control group. The difference between the control group and the test group in the ranking of the symtoms of cerebral apoplexy manifested was subjected to rank sum test.
# In the test group, each of the animals was orally treated every day with ISI dissolved in 1% gum-arabica solution so that the concentration may become 0.06 weight % at a dose of 0.5 ml/100 g body weight twice a day, starting with the sodium chloride loading. In the control group, each of the animals was treated with 1% gum-arabica solution at a dose of 0.5 ml/100 g body weight in a manner similar to that in the test group.
# The animals in which the symptom of apoplexy was manifested, after being anesthetized, was treated with intravenous injection of 1% Evans Blue (dosage: 1 ml/kg). After sacrifice by bloodletting, hemorrhage and extravascular extravasation of the dye in the brain and the spinal cord was observed.
# With paralysis of the limbs, stereotyped behaviour, an extreme loss of
# those animals were counted as those suffering from C.A.: Excitement,
# Hyperirritability, Depression, Epileptic symptom, Hemiplegia, Sudden
# [2] = Acute toxicity (LD50 in mice); conditions: mouse, in vivo
# [3] = test system: hemorrhagic infarction (rat cerebral infarction model); assay: Inhibition of hemorrhagic infarction in cerebral infarction model, ISI orally administered (Test Example 1B); type: in vivo, Sprague Dowley male rats; conditions: oral, twice daily
# Protocol: (§1) (A) A cerebral infarction model was constructed by the following procedure. The bilateral common carotid arteries of Sprague Dowley male rats (body weights 300 to 350 g) in which one of the vertebral arteries was occluded by electrocauterization in accordance with the method of W. Pulsinelli et al (Stroke 10, 267, 1979) were uniformly occluded and made repatent, using clamps, at an interval of 1 hour for the first cycle and thereafter at 30-minute intervals for a total of 4 cycles.
# The isolated brains were fixed in 10% formalin. For the assessment of hemorrhagic infarction, paraffin-embedded specimens prepared from three different sections passing through the mid-point between the anterior portion of the frontal lobe and the optic chiasm, the optic chiasm and the posterior portion of the mamillary body were used after H.E. stain.
# (B) In the system using the above-mentioned cerebral infarction model, 0.25 ml/100 g body weight of suspension of the test drug ISI in 5% sodium alginate was orally administrated (dose of ISI: 30 mg/kg). To control animals, 0.25 ml/100 g body weight of 5% sodium alginate was orally administered. The administration schedule was twice daily for both groups.
# The brains submitted to the study were subjected to the same treatment as above, and assessments were made on paraffin-embedded specimens.
# [4] = test system: hemorrhagic infarction (rat cerebral infarction model); assay: Inhibition of hemorrhagic infarction in cerebral infarction model, ISI injection (Test Example 1A); type: in vivo, Sprague Dowley male rats; conditions: intraperitoneal
# Protocol: as §1
# After the final establishment of repatency in this test model and on the second day and onwards, 1 ml/100 g body weight of Glyceol ® Injection [a preparation containing 10 weight % of glycerol, the trademark of Chugai Pharmaceutical Co., Ltd., Japan] was intraperitoneally administered twice daily. The test drug ISI was dissolved in Glyceol ® Injection to a concentration of 0.08 weight % and administered in the same manner as Glyceol ® Injection.
# In a disease model such as the one used in this experiment, death of animals occurs in many cases as an infarction leads to cerebral edema which compresses the brain stem. Therefore, for the purpose of preventing death due to this cause and ensuring a smooth performance of the experiment, the animals were treated with Glyceol ® Injection which has a relieving effect on cerebral edema.
# The isolated brains were fixed in 10% formalin. […]
structure (smiles),measurement,setting,value
"CC(C)N1CC(O)C2=CC(=NNC(N)=O)C(=O)C=C21 (centres unmarked) [ISI, 1-isopropyl-3-hydroxy-5-semicarbazono-6-oxo-2,3,5,6-tetrahydroindole]","Number of animals suffering from C.A., Total","[1]; ISI 3.0 mg/kg, oral twice a day, total, days 20-42 after NaCl loading, control 10/10",5/10
same,Number of animals suffering from C.A.,"[1]; ISI 3.0 mg/kg, 20 days after NaCl loading, control 0",1
same,Number of animals suffering from C.A.,"[1]; ISI 3.0 mg/kg, 21 days after NaCl loading, control 1",0
same,Number of animals suffering from C.A.,"[1]; ISI 3.0 mg/kg, 23 days after NaCl loading, control 1",0
same,Number of animals suffering from C.A.,"[1]; ISI 3.0 mg/kg, 26 days after NaCl loading, control 1",0
same,Number of animals suffering from C.A.,"[1]; ISI 3.0 mg/kg, 32 days after NaCl loading, control 1",0
same,Number of animals suffering from C.A.,"[1]; ISI 3.0 mg/kg, 33 days after NaCl loading, control 1",1
same,Number of animals suffering from C.A.,"[1]; ISI 3.0 mg/kg, 34 days after NaCl loading, control 1",0
same,Number of animals suffering from C.A.,"[1]; ISI 3.0 mg/kg, 37 days after NaCl loading, control 0",2
same,Number of animals suffering from C.A.,"[1]; ISI 3.0 mg/kg, 39 days after NaCl loading, control 1",0
same,Number of animals suffering from C.A.,"[1]; ISI 3.0 mg/kg, 40 days after NaCl loading, control 1",0
same,Number of animals suffering from C.A.,"[1]; ISI 3.0 mg/kg, 41 days after NaCl loading, control 0",1
same,Number of animals suffering from C.A.,"[1]; ISI 3.0 mg/kg, 42 days after NaCl loading, control 2",0
same,effect of ISI against cerebral apoplexy (significance versus control),"[1]; oral ISI twice a day, Mann-Whitrey's U-test",5% significant difference
same,LD50,"[2]; intravenous, read-out: Acute toxicity LD50, intravenous",350 mg/kg
same,LD50,"[2]; oral, read-out: Acute toxicity LD50, oral",≥ 10000 mg/kg
same,Number of cases of hemorrhagic infarction,"[3]; 30 mg/kg in 5% sodium alginate, control (sodium alginate) 18/43",9/41
same,inhibitory effect on cerebral infarction (significance versus control),"[3]; 30 mg/kg, vs control group",inhibitory effect on cerebral infarction was obtained in the ISI group at the significance level of 5%
same,Number of cases of hemorrhagic infarction,"[4]; 0.08% ISI in Glyceol injection, 1 ml/100 g, twice daily, up to 7 days, control (Glyceol injection) 6/20",1/19
same,inhibitory effect on hemorrhagic infarction (significance versus control),[4]; ISI in Glyceol injection vs control group,inhibitory effect on hemorrhagic infarction was obtained in the ISI group at the significance level of 5%
